According to patent publication US20210188843A1, “QUINOLINE COMPOUNDS AND THEIR PREPARATION AND USE AS ANTIMALARIAL AGENTS” (The United States of America,as represented by the …, priority 2018, published 2021):
Converted amounts (≈) assume the structure as drawn.

Assays:
Solubility pH 7.4 = format: physicochemical; conditions: aqueous buffer, Table 1
[1] = test system: Asexual parasites of P. falciparum strain 3D7; assay: In vitro drug activity on asexual parasites (SYBR Green assay); format: cell-based; conditions: Plasmodium falciparum; Table 1; P. falciparum 3D7 asexual stage, 72 h; read-out: Asexual EC50
Outline: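 3D7 asexual cultures at 0.5% parasitemia and 2% hematocrit were exposed to drug (DMSO <0.5%) for 72 h under standard culture conditions, in duplicate with no-drug and RBC-only controls. After freeze-thaw lysis, SYBR Green I lysis buffer was added for 30 min at room temperature; fluorescence was read at 490 nm excitation/520 nm emission.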

PAMPA permeability = format: in vitro ADME; conditions: Table 1
[2] = Microsomal stability (rat); format: in vitro ADME; conditions: rat microsomes, Table 1, read-out: Microsomal Stability (rat) T1/2

Compound | solubility (Solubility pH 7.4) | EC50 [1] | Papp (PAMPA permeability) | half-life [2]
C/N=c1\n(C)c2cnc3ccc(-c4ccc(Cl)cc4)cc3c2n1-c1cc(C#N)ccc1C [Compound 6, (E)-3-(8-(4-chlorophenyl)-3-methyl-2-(methylimino)-2,3-dihydro-1H-imidazo[4,5-c]quinolin-1-yl)-4-methylbenzonitrile] | 9.6 µg/mL (≈ 21.9 µM) | 279 nM | 921 ×10⁻⁶ cm/s | > 30 min
Cc1ccc(C#N)cc1-n1/c(=N/C#N)n(C)c2cnc3ccc(-c4ccc(Cl)cc4)cc3c21 [Compound 8, (E)-N-(8-(4-chlorophenyl)-1-(5-cyano-2-methylphenyl)-3-methyl-1,3-dihydro-2H-imidazo[4,5-c]quinolin-2-ylidene)cyanamide] | < 1 µg/mL | 59.8 nM | 1190 ×10⁻⁶ cm/s | > 30 min
CCC(=O)/N=c1\n(C)c2cnc3ccc(-c4ccc(Cl)cc4)cc3c2n1-c1cc(C#N)ccc1C [Compound 9, (E)-N-(8-(4-chlorophenyl)-1-(5-cyano-2-methylphenyl)-3-methyl-1,3-dihydro-2H-imidazo[4,5-c]quinolin-2-ylidene)propionamide] | < 1 µg/mL | 38.5 nM | 526 ×10⁻⁶ cm/s | > 30 min
Cn1c(=N)n(-c2cccc(C#N)c2)c2c3cc(-c4ccc(Cl)cc4)ccc3ncc21 [Compound 11, 3-(8-(4-chlorophenyl)-2-imino-3-methyl-2,3-dihydro-1H-imidazo[4,5-c]quinolin-1-yl)benzonitrile] | 3.1 µg/mL (≈ 7.56 µM) | 48.2 nM | 1000 ×10⁻⁶ cm/s | > 30 min
Cc1ccc(C#N)cc1-n1c(=N)n(C)c2cnc3ccc(-c4ccc(F)cc4)cc3c21 [Compound 12, 3-(8-(4-fluorophenyl)-2-imino-3-methyl-2,3-dihydro-1H-imidazo[4,5-c]quinolin-1-yl)-4-methylbenzonitrile] | 3.9 µg/mL (≈ 9.57 µM) | 64.4 nM | 1030 ×10⁻⁶ cm/s | > 30 min
CSc1ccc(C#N)cc1-n1/c(=N/C#N)n(C)c2cnc3ccc(-c4ccc(Cl)cc4)cc3c21 [Compound 18, (E)-N-(8-(4-chlorophenyl)-1-(5-cyano-2-(methylthio)phenyl)-3-methyl-1,3-dihydro-2H-imidazo[4,5-c]quinolin-2-ylidene)cyanamide] | < 1 µg/mL | 564 nM | 247 ×10⁻⁶ cm/s | 16.9 min
Cc1nc(N2CCOCC2)c(C#N)cc1-n1c(=N)n(C)c2cnc3ccc(-c4ccc(Cl)cc4)cc3c21 [Compound 21, 5-(8-(4-chlorophenyl)-2-imino-3-methyl-2,3-dihydro-H-imidazo[4,5-c]quinolin-1-yl)-6-methyl-2-morpholinonicotinonitrile] | 4.4 µg/mL (≈ 8.63 µM) | 317 nM | 1560 ×10⁻⁶ cm/s | > 30 min
Cc1cc(N2CCOCC2)c(C#N)cc1-n1c(=N)n(C)c2cnc3ccc(-c4ccc(Cl)cc4)cc3c21 [Compound 23, 5-(8-(4-chlorophenyl)-2-imino-3-methyl-2,3-dihydro-1H-imidazo[4,5-c]quinolin-1-yl)-4-methyl-2-morpholinobenzonitrile] | < 1 µg/mL | 63.9 nM | 340 ×10⁻⁶ cm/s | > 30 min
Cc1ccc(C#N)cc1-n1c(=N)n(C)c2cnc3ccc(-c4cccc(CN(C)C)c4)cc3c21 [Compound 24, 3-(8-(3-((dimethylamino)methyl)phenyl)-2-imino-3-methyl-2,3-dihydro-1H-imidazo[4,5-c]quinolin-1-yl)-4-methylbenzonitrile] | > 44 µg/mL | 980 nM | 405 ×10⁻⁶ cm/s | > 30 min
Cc1ccc(C#N)cc1-n1c(=N)n(C)c2cnc3ccc(-c4cccc(C#N)c4)cc3c21 [Compound 25, 3-(8-(3-cyanophenyl)-2-imino-3-methyl-2,3-dihydro-1H-imidazo[4,5-c]quinolin-1-yl)-4-methylbenzonitrile] | > 41 µg/mL | 118 nM | 1430 ×10⁻⁶ cm/s | > 30 min
Cn1c(=N)n(-c2cccc(C(F)(F)F)c2)c2c3cc(-c4ccc(Cl)cc4)ccc3ncc21 [Compound 26, 8-(4-chlorophenyl)-3-methyl-1-(3-(trifluoromethyl)phenyl)-1,3-dihydro-2H-imidazo[4,5-c]quinolin-2-imine] | < 1 µg/mL | 529 nM | 1670 ×10⁻⁶ cm/s | > 30 min
Cc1ccc(C(F)(F)F)cc1-n1c(=N)n(C)c2cnc3ccc(-c4ccc(Cl)cc4)cc3c21 [Compound 27, 8-(4-chlorophenyl)-3-methyl-1-(2-methyl-5-(trifluoromethyl)phenyl)-1,3-dihydro-2H-imidazo[4,5-c]quinolin-2-imine] | < 1 µg/mL | 138 nM | 1610 ×10⁻⁶ cm/s | > 30 min
